Test results from US20160361329A1, “COMPOUNDS FOR TREATMENT OF COMPLEMENT MEDIATED DISORDERS” (Achillion Pharmaceuticals, Inc., priority 2014, published 2016).

Molecular target: T1, Human factor D (Homo sapiens, UniProt P00746)
T1 construct: purified from human serum; purchased Complement Technology, Inc; host or cells: human serum
Test: Human Factor D Assay
Type: biochemical
Details: Human factor D 80 nM, substrate Z-L-Lys-SBzl and DTNB, pH 7.5
Procedure: Other standard factor D inhibition assays are also available.
Human factor D (purified from human serum, Complement Technology, Inc.) at 80 nM final concentration is incubated with test compound at various concentrations for 5 minutes at room temperature in 50 mM Tris, 1M NaCl, pH 7.5. A synthetic substrate Z-L-Lys-SBzl and DTNB (Ellman's reagent) are added to final concentrations of 100 μM each. The increase in color is recorded at OD405 nm in a microplate in kinetic mode over 30 minutes with 30 second time points in a spectrofluorimeter. IC50 values are calculated by non-linear regression from the percentage of inhibition of complement factor D activity as a function of test compound concentration.

T1 sequence (P00746 26-253): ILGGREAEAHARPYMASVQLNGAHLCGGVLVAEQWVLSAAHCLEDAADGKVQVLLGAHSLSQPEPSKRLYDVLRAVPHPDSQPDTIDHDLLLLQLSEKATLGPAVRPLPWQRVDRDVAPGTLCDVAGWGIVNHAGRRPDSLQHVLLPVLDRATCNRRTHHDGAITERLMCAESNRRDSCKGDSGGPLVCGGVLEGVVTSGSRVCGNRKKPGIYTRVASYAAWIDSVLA

Row | SMILES | IC50 [µM]
1 | NC(=O)n1cc(NC(=O)N2c3ccccc3C[C@H]2C(=O)NCc2cccc(Cl)c2F)c2ccccc21 [Compound 2, (S)-N1-(1-carbamoyl-1H-indol-3-yl)-N2-(3-chloro-2-fluorobenzyl)indoline-1,2-dicarboxamide] | 1 to 10
2 | NC(=O)n1cc(NC(=O)N2C[C@H](F)C[C@H]2c2ncc(-c3cccc(Cl)c3)[nH]2)c2ccccc21 [Compound 10, 3-((2S,4R)-2-(5-(3-chlorophenyl)-1H-imidazol-2-yl)-4-fluoropyrrolidine-1-carboxamido)-1H-indole-1-carboxamide] | 1 to 10
3 | NC(=O)n1cc(NC(=O)N2C[C@H](F)C[C@H]2c2ncc(-c3cccc(Br)n3)[nH]2)c2ccccc21 [Compound 12, 3-((2S,4R)-2-(5-(6-bromopyridin-2-yl)-1H-imidazol-2-yl)-4-fluoropyrrolidine-1-carboxamido)-1H-indole-1-carboxamide] | 1 to 10
4 | CC(=O)c1cn(CC(=O)N2C[C@H](F)C[C@H]2c2ncc(-c3cccc(Br)n3)[nH]2)c2ccccc12 [Compound 13, 2-(3-acetyl-1H-indol-1-yl)-1-((2S,4R)-2-(5-(6-bromopyridin-2-yl)-1H-imidazol-2-yl)-4-fluoropyrrolidin-1-yl)ethanone] | 1 to 10
5 | NC(=O)n1cc(NC(=O)N2C[C@H](F)C[C@H]2c2nc3cc(Cl)ccc3[nH]2)c2ccccc21 [Compound 14, 3-((2S,4R)-2-(5-chloro-1H-benzo[d]imidazol-2-yl)-4-fluoropyrrolidine-1-carboxamido)-1H-indole-1-carboxamide] | 1 to 10
6 | NC(=O)n1cc(NC(=O)[C@@H]2CCC[C@H]2C(=O)NCc2cccc(Cl)c2F)c2ccccc21 [Compound 23, (1R,2R)-N1-(1-carbamoyl-1H-indol-3-yl)-N2-(3-chloro-2-fluorobenzyl)cyclopentane-1,2-dicarboxamide] | 1 to 10
7 | CC(=NC#N)c1cn(CC(=O)N2C[C@H](F)C[C@H]2C(=O)NCc2cccc(Cl)c2F)c2ccccc12 [Compound 32, (2S,4R)-N-(3-chloro-2-fluorobenzyl)-1-(2-(3-(1-(cyanoimino)ethyl)-1H-indol-1-yl)acetyl)-4-fluoropyrrolidine-2-carboxamide] | 1 to 10
8 | CC(=O)c1cn(CC(=O)N2C[C@H](F)C[C@H]2c2ncc(-c3cccc(Br)n3)[nH]2)c2cc(O)ccc12 [Compound 40, 2-(3-acetyl-6-hydroxy-1H-indol-1-yl)-1-((2S,4R)-2-(5-(6-bromopyridin-2-yl)-1H-imidazol-2-yl)-4-fluoropyrrolidin-1-yl)ethanone] | 1 to 10
9 | CC(=O)c1cn(CC(=O)N2CC3(C[C@H]2C(=O)Nc2cccc(OC(F)(F)F)c2F)OCCO3)c2cc(O)ccc12 [Compound 41, (S)-7-(2-(3-acetyl-6-hydroxy-1H-indol-1-yl)acetyl)-N-(2-fluoro-3-(trifluoromethoxy)phenyl)-1,4-dioxa-7-azaspiro[4.4]nonane-8-carboxamide] | 1 to 10
10 | CC(=O)c1cn(CC(=O)N2C[C@H](F)C[C@H]2C(=O)NC2CCc3ccccc32)c2ccccc12 (some centres unmarked) [Compound 42] | 1 to 10
11 | CC(=O)c1cn(CC(=O)N2C[C@H](F)C[C@H]2C(=O)NC2CCc3c(Cl)cccc32)c2ccccc12 (stereo partly drawn) [Compound 44, (2S,4R)-1-(2-(3-acetyl-1H-indol-1-yl)acetyl)-N-(4-chloro-2,3-dihydro-1H-inden-1-yl)-4-fluoropyrrolidine-2-carboxamide] | 1 to 10
12 | O=C(NCc1cccc(Cl)c1F)[C@@H]1C[C@@H](F)CN1C(=O)CC1=Nc2ccccc2S(=O)(=O)N1 [Compound 49, (2S,4R)-N-(3-chloro-2-fluorobenzyl)-1-(2-(1,1-dioxido-2H-benzo[e][1,2,4]thiadiazin-3-yl)acetyl)-4-fluoropyrrolidine-2-carboxamide] | 1 to 10
13 | CCOP(=O)(OCC)c1nn(CC(=O)N2C[C@H](F)C[C@H]2C(=O)NCc2cccc(Cl)c2F)c2cnccc12 [Compound 53, diethyl 1-(2-((2S,4R)-2-(3-chloro-2-fluorobenzylcarbamoyl)-4-fluoropyrrolidin-1-yl)-2-oxoethyl)-1H-pyrazolo[3,4-c]pyridin-3-ylphosphonate] | 1 to 10
14 | CC(=O)c1ccc(CC(=O)N2C[C@H](F)C[C@H]2C(=O)NCc2cccc(Cl)c2F)c2ccccc12 [Compound 58, (2S,4R)-1-(2-(4-acetylnaphthalen-1-yl)acetyl)-N-(3-chloro-2-fluorobenzyl)-4-fluoropyrrolidine-2-carboxamide] | 1 to 10
15 | CCOP(=O)(OCC)c1cc(Cl)cc(NC(=O)[C@@H]2C[C@@H](F)CN2C(=O)Cn2cc(C(C)=O)c3ccccc32)c1 [Compound 59, diethyl 3-((2S,4R)-1-(2-(3-acetyl-1H-indol-1-yl)acetyl)-4-fluoropyrrolidine-2-carboxamido)-5-chlorophenylphosphonate] | 1 to 10
16 | CCOP(=O)(O)c1nn(CC(=O)N2C[C@H](F)C[C@H]2C(=O)NCc2cccc(Cl)c2F)c2cnccc12 [Compound 60, ethyl hydrogen 1-(2-((2S,4R)-2-(3-chloro-2-fluorobenzylcarbamoyl)-4-fluoropyrrolidin-1-yl)-2-oxoethyl)-1H-pyrazolo[3,4-c]pyridin-3-ylphosphonate] | 1 to 10
17 | C=C[C@@H]1C[C@]1(NC(=O)[C@@H]1C[C@@H](F)CN1C(=O)Cn1cc(C(C)=O)c2ccc(O)cc21)C(=O)NS(=O)(=O)C1CC1 [Compound 64, (2S,4R)-1-(2-(3-acetyl-6-hydroxy-1H-indol-1-yl)acetyl)-N-((1R,2S)-1-(cyclopropylsulfonyl-carbamoyl)-2-vinylcyclopropyl)-4-fluoropyrrolidine-2-carboxamide] | 1 to 10
18 | CC(=O)c1cn(CC(=O)N2[C@@H]3CCCC[C@@H]3C[C@H]2C(=O)NCc2cccc(Cl)c2F)c2cc(O)ccc12 [Compound 66, (2S,3aR,7aR)-1-(2-(3-acetyl-6-hydroxy-1H-indol-1-yl)acetyl)-N-(3-chloro-2-fluorobenzyl)octahydro-1H-indole-2-carboxamide] | 1 to 10
19 | CS(=O)(=O)N1CCc2c(n(CC(=O)N3C[C@H](F)C[C@H]3C(=O)NCc3cccc(Cl)c3F)c3ccccc23)C1 [Compound 69, (2S,4R)-N-(3-chloro-2-fluorobenzyl)-4-fluoro-1-(2-(2-(methylsulfonyl)-3,4-dihydro-1H-pyrido[3,4-b]indol-9(2H)-yl)acetyl)pyrrolidine-2-carboxamide] | 1 to 10
20 | NC(c1cn(CC(=O)N2C[C@H](F)C[C@H]2C(=O)NCc2cccc(Cl)c2F)c2ccccc12)C(F)(F)F (stereo partly drawn) [Compound 78, (2S,4R)-1-(2-(3-(1-amino-2,2,2-trifluoroethyl)-1H-indol-1-yl)acetyl)-N-(3-chloro-2-fluorobenzyl)-4-fluoropyrrolidine-2-carboxamide] | 1 to 10
21 | COc1cccc2c1c(C(C)=O)cn2CC(=O)N1C[C@H](F)C[C@H]1C(=O)Nc1cccc(-c2ccccc2Cl)c1F [Compound 96, (2S,4R)-1-(2-(3-acetyl-4-methoxy-1H-indol-1-yl)acetyl)-N-(2′-chloro-2-fluorobiphenyl-3-yl)-4-fluoropyrrolidine-2-carboxamide] | 1 to 10
22 | [2H]C([2H])(NC(=O)[C@@H]1C[C@H]2C[C@H]2N1C(=O)Cn1nc(C(N)=O)c2ccncc21)c1cccc(Cl)c1F [Compound 127, (1R,3S,5R)-2-(2-(3-carbamoyl-1H-pyrazolo[3,4-c]pyridin-1-yl)acetyl)-2-azabicyclo[3.1.0]hexane-3-carboxammide, N-(3-chloro-2-fluorophenylmethyl-d2)] | < 1
23 | [2H]C([2H])(NC(=O)[C@@H]1C[C@@H](F)CN1C(=O)Cn1nc(C(N)=O)c2ccncc21)c1cccc(Cl)c1F [Compound 128, (2S,4R)-1-(2-(3-carbamoyl-1H-pyrazolo[3,4-c]pyridin-1-yl)acetyl)-4-fluoropyrrolidine-2-carboxamide, N-(3-chloro-2-fluorophenylmethyl-d2)] | < 1
